For assay [1], the target named is T1, recombinant human catalytic domain of MMP-14 (Homo sapiens, UniProt P50281).
T1 construct: 177 amino acids corresponding to Tyr89-Gly265 of mature human enzyme; purchased Chemicon International, Inc. CC1041
Briefly: In vitro fluorescence assay of MMP-14 activity. It counts as biochemical. The conditions noted are these: Table 1; unit inferred.

Another assay deals with T2, recombinant human MMP-2 (Homo sapiens, UniProt P08253).
T2 sequence (P08253 110-660): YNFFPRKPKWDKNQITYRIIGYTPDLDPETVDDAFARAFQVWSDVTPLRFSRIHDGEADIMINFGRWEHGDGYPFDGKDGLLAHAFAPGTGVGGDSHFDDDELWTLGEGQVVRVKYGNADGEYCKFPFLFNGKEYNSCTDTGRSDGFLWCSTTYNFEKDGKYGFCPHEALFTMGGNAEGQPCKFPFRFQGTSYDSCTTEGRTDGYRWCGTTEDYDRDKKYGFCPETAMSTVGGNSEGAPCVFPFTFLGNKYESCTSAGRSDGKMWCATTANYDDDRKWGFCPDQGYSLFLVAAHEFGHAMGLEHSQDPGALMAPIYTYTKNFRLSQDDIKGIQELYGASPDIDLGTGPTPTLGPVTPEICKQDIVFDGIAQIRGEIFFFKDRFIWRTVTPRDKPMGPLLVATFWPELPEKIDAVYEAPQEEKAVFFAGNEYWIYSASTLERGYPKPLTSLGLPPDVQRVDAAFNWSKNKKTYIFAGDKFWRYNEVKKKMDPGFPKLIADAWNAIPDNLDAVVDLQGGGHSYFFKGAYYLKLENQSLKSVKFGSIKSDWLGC
Briefly: In vitro fluorescence assay of MMP-2 activity.

Assay [2] concerns the target T3, purified recombinant human Aggrecanase-2 (Ag2t-Phe628-Strep) (Homo sapiens, UniProt Q9UNA0).
T3 construct: the form used is denoted as Ag2t-Phe628-Strep (MW=41,737)
T3 sequence (Q9UNA0 262-628): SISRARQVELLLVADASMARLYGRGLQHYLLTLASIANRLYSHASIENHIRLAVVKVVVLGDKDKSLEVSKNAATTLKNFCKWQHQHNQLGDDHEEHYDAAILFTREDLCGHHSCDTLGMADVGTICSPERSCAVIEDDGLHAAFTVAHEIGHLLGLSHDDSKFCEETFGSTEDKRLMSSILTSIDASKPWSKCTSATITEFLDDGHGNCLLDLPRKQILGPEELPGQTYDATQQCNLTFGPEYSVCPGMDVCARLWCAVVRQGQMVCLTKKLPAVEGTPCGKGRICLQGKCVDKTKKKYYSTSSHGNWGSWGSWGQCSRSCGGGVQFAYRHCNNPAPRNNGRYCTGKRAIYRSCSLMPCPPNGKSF
Briefly: In vitro fluorescence screen for Aggrecanase-2 inhibitors. Particulars: Table 1; read-out: Agg 2 IC50. The format is biochemical.

Assay [3] addresses T4, purified recombinant human Aggrecanase-1 (rAgg1) (Homo sapiens, UniProt O75173).
T4 sequence (O75173 213-837): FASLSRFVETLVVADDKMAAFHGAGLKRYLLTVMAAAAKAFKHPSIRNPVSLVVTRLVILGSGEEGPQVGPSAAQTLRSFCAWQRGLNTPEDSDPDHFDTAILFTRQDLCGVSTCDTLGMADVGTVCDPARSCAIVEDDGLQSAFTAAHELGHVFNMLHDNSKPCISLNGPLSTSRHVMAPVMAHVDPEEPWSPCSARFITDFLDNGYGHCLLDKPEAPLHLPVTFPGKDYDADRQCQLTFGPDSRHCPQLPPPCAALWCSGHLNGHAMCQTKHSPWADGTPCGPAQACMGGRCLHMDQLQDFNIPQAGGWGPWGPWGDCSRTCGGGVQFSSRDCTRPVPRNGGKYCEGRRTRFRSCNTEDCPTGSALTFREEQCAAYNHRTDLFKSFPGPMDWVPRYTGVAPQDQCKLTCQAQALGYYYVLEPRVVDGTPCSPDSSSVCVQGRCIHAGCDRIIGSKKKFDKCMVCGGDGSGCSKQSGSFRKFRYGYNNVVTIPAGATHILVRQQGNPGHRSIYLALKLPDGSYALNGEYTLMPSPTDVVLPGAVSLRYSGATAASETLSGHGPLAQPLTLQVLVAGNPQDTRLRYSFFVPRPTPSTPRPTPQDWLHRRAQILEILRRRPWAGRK
Description: In vitro fluorescence screen for Aggrecanase-1 inhibitors. It counts as biochemical. The conditions noted are these: Table 1; for Ki: enzyme not given, column follows Agg1 IC50, read-out: Ki; for IC50: read-out: Agg1 IC50.

The target of another assay is T5, MMP-1 (Homo sapiens, UniProt P03956).
T5 sequence (P03956 100-469): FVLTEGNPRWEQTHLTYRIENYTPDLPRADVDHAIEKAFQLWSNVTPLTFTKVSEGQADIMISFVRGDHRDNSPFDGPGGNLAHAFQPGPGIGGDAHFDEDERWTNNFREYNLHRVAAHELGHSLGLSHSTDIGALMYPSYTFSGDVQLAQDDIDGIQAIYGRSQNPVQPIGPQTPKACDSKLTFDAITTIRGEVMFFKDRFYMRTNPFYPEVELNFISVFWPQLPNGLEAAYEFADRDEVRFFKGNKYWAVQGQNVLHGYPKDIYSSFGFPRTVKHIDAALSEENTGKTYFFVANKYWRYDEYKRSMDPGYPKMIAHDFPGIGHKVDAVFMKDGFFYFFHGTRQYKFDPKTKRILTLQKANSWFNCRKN
Description: MMP-1 of Table 1. It counts as biochemical. Particulars: for IC50: unit inferred; for MMP-1: unit not given.

Assay [4] deals with bovine articular cartilage treated with Interleukin 1 alpha (IL-1α). Briefly: Bovine articular cartilage explant cultures: inhibition of degradation of proteoglycan. The format is cell-based. Particulars: inhibitory effect expressed as percentage, concentration not printed. The gist of the method: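 Bovine metacarpal cartilage discs (6 mm), equilibrated in serum-free DMEM-based medium, were treated with 5 ng/ml IL-1 plus compound (working solutions 0.1-10 μg/ml), with medium collected and replaced on days 1, 2 and 3. Released proteoglycan was measured by DMMB absorbance at 520 nm against chondroitin sulphate standards, expressed as μg per mg cartilage, and inhibition given as percentage.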

The target of assay [5] is T6, recombinant human catalytic domain of MMP-13 (Homo sapiens, UniProt P45452).
T6 construct: catalytic domain of MMP-13 (165 amino acids, residues 104-268, 19 kDa)
Briefly: In vitro fluorescence assay of MMP-13 activity. The format is biochemical. Particulars: Table 1; unit inferred.

Where [6] appears, read: Table 1, first of two columns headed bovine.
[7] abbreviates: Table 1, second of two columns headed bovine.

Structures are written as SMILES.

A word on the IC50: it is the midpoint of a concentration-inhibition curve. As usually defined, the Ki is a dissociation constant, usually derived from enzyme kinetics or from competition with a known ligand. Turning to `C=Cc1cccc(CNC(=O)[C@H](CCC(=O)O)NC(=O)c2ccc(-c3ccccc3)cc2)c1` [Example 10M, N^2-(1,1′-biphenyl-4-ylcarbonyl)-N^1-(3-vinylbenzyl)-L-α-glutamine], the IC50 is greater than 200 µM in assay [1]; greater than 20 µM on recombinant human MMP-2; 1.1 µM in assay [2]; 0.043 µM in assay [3]; greater than 50 µM at MMP-1; roughly 20 µM in assay [5]. The Ki in assay [3] stood at 0.054 µM. The bovine in assay [4] (setting [6]) stood at 67%; in assay [4] (setting [7]), 35%.
In the case of `COc1cc(CNC(=O)[C@H](CCC(=O)O)NC(=O)c2ccc(-c3ccccc3)cc2)cc(OC)c1OC` [Example 8R, N^2-(1,1′-biphenyl-4-ylcarbonyl)-N^1-(3,4,5-trimethoxybenzyl)-L-α-glutamine], the IC50 in assay [1] is roughly 22 µM; on recombinant human MMP-2 it was 10.4 µM; in assay [2] it was 0.05 µM; in assay [3], 0.016 µM; in assay [5], 42.4 µM. Also, the inhibitory constant (Ki) in assay [3] is 0.005 µM. The MMP-1 result at MMP-1 is reported as “no inh”. In addition, the bovine in assay [4] (setting [6]) is 86%; in assay [4] (setting [7]) it was 78%.
As to `COc1cc(CNC(=O)[C@H](CCC(=O)O)NC(=O)c2ccc(-c3ccccc3)cc2)cc(OC)c1` [Example 8CC, N^2-(1,1′-biphenyl-4-ylcarbonyl)-N^1-(3,5-dimethoxybenzyl)-L-α-glutamine], the IC50 in assay [1] is roughly 25 µM; at recombinant human MMP-2, 5.65 µM; in assay [2], 0.121 µM; in assay [3], 0.022 µM; in assay [5], roughly 22 µM. The Ki in assay [3] came out at 0.019 µM. The MMP-1 result on MMP-1 was “no inh”. Further, the bovine is listed as 94% in assay [4] (setting [6]) and 71% in assay [4] (setting [7]).
On to `CCOc1cccc(-c2ccc(C(=O)N[C@@H](CCC(=O)O)C(=O)NCc3ccccc3)cc2)c1` [Example 13D, N^1-benzyl-N^2-[(3′-ethoxy-1,1′-biphenyl-4-yl)carbonyl]-L-α-glutamine], for which the IC50 in assay [1] is greater than 100 µM; at recombinant human MMP-2, greater than 200 µM; in assay [2] it was roughly 26 µM; in assay [3], 0.75 µM; against MMP-1, greater than 100 µM; in assay [5], greater than 200 µM. Also, the figures for the bovine in assay [4] (setting [6]) and in assay [4] (setting [7]) were 51% and 25%, respectively.
`O=C(O)CC[C@H](NC(=O)c1ccc(-c2ccccc2)cc1)C(=O)NCc1cccc(I)c1` [Example 8JJ, N^2-(1,1′-biphenyl-4-ylcarbonyl)-N^1-(3-iodobenzyl)-L-α-glutamine]: the IC50 was greater than 200 µM in assay [1]; 27 µM on recombinant human MMP-2; 1.1 µM in assay [2]; 0.045 µM in assay [3]; greater than 200 µM against MMP-1; 17 µM in assay [5]. Moreover, the Ki in assay [3] stood at 0.033 µM. The values for the bovine in assay [4] (setting [6]) and in assay [4] (setting [7]) were 70% and 17%, respectively.
Consider `COc1ccc(CCNC(=O)[C@H](CCC(=O)O)NC(=O)c2ccc(-c3ccccc3)cc2)cc1` [Example 8M, N^2-(1,1′-biphenyl-4-ylcarbonyl)-N^1-[2-(4-methoxyphenyl)ethyl]-L-α-glutamine], for which the IC50 in assay [1] was 13 µM; at recombinant human MMP-2 it was 8 µM; in assay [2] it was 0.856 µM; in assay [3], 0.12 µM; against MMP-1 it was greater than 100 µM; in assay [5], roughly 50 µM. Also, the bovine in assay [4] (setting [6]) was determined as 85%; in assay [4] (setting [7]), 17%.
`CSc1ccc(CNC(=O)[C@H](CCC(=O)O)NC(=O)c2ccc(-c3ccccc3)cc2)cc1` [Example 8V, N^2-(1,1′-biphenyl-4-ylcarbonyl)-N^1-[4-(methylthio)benzyl]-L-α-glutamine]: the IC50 in assay [1] was roughly 30 µM; at recombinant human MMP-2 it was 3.43 µM; in assay [2], 1.1 µM; in assay [3], 0.16 µM; against MMP-1 it was greater than 100 µM; in assay [5] it was roughly 67 µM. The values for the bovine in assay [4] (setting [6]) and in assay [4] (setting [7]) were 73% and 45%, respectively.
With `O=C(O)CC[C@H](NC(=O)c1ccc(-c2ccccc2)cc1)C(=O)NC1CCCCC1` [Example 8A, N^2-(1,1′-biphenyl-4-ylcarbonyl)-N^1-cyclohexyl-L-α-glutamine], the IC50 in assay [1] is roughly 25 µM; at recombinant human MMP-2 it was 4.4 µM; in assay [2], 0.9 µM; in assay [3], 0.15 µM; on MMP-1, greater than 100 µM; in assay [5] it was roughly 40 µM. Besides, the bovine in assay [4] (setting [6]) came out at 75%; in assay [4] (setting [7]), 29%.
With `Cc1cc(C)cc(-c2ccc(C(=O)N[C@@H](CCC(=O)O)C(=O)NCc3ccccc3)cc2)c1` [Example 13A, N^1-benzyl-N^2-[(3′,5′-dimethyl-1,1′-biphenyl-4-yl)carbonyl]-L-α-glutamine], the half-maximal inhibitory concentration (IC50) in assay [1] was greater than 100 µM; at recombinant human MMP-2 it was roughly 67 µM; in assay [2] it was roughly 67 µM; in assay [3], 1.5 µM; at MMP-1 it was greater than 100 µM; in assay [5], greater than 100 µM. Also, the bovine is 37% in assay [4] (setting [6]) and 18% in assay [4] (setting [7]).
On to `O=C(O)CC[C@H](NC(=O)c1ccc(-c2ccccc2)cc1)C(=O)NCc1ccc(F)c(C(F)(F)F)c1` [Example 8NNN, N^2-(1,1′-biphenyl-4-ylcarbonyl)-N^1-[4-fluoro-3-(trifluoromethyl)benzyl]-L-α-glutamine], for which the IC50 in assay [1] was greater than 50 µM; on recombinant human MMP-2 it was greater than 10 µM; in assay [2], 1.75 µM; in assay [3], 0.1 µM; against MMP-1, greater than 50 µM; in assay [5], 14 µM. In addition, in assay [3], the Ki is 0.219 µM. The results for the bovine in assay [4] (setting [6]) and in assay [4] (setting [7]) were 60% and 0%, respectively.

The values are drawn from patent US7998965B2, “Glutamate aggrecanase inhibitors” (Wyeth LLC, priority 2005, dated 2011).
